The source of these data is patent US9221834B2 (Merck Sharp & Dohme Corp., priority 2010, dated 2015).

The structures appear in SMILES notation.

The experiment deals with T1, recombinant CETP (rCETP) (Homo sapiens, UniProt P11597).
T1 sequence (P11597 18-493): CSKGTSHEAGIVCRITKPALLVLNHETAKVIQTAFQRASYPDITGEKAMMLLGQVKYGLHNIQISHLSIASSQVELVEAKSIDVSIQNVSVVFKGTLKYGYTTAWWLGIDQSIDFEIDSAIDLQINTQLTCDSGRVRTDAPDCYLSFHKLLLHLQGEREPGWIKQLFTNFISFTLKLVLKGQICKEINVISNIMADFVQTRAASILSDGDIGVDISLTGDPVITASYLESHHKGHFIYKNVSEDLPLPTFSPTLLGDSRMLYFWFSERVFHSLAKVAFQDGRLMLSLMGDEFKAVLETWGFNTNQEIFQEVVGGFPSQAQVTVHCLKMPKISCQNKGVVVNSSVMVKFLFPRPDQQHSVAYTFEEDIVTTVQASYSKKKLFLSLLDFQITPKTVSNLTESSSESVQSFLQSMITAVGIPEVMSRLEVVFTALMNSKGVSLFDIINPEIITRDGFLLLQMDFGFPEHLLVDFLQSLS
Kind of experiment: RTA assay using recombinant CETP (2% RTA). The settings on record: RTA assay in 2% human serum; read-out: IC50. In kind it is biochemical. Here is the method: In Vitro Radioactive Assays of CETP-Catalyzed CE and TG Transfer (RTA Assay)
Reagents and sources are: [3H] cholesteryl oleate (GE #TRK.886), [3H]
Both assays measure the transfer of [3H] cholesteryl oleate or [3H]triolein from exogenous LDL to HDL.
After a brief vortex, the solution is sonicated until clear and mixed with 20 mL of fresh human serum. The mixture is incubated overnight at 37° C. […] Once isolated the particles are dialyzed 3× in CETP buffer (50 mM Tris, pH 7.4, 100 mM NaCl, 1 mM EDTA). Human HDL is purchased from Intracel and used as the acceptor particles.
Transfer assays are performed in a 96-well v-bottom polypropylene plate. […] 1 μL of each test compound diluted in DMSO is added to 47 μL of assay cocktail per well and incubated at 37° C. for 1 hour. To initiate the transfer reaction, 2 μL radiolabeled LDL is added. After an additional 60 min of incubation at 37° C., the transfer action is terminated by precipitation of LDL with an equal volume of 20% W/V PEG 8000. The plates are centrifuged at 2000 rpm for 30 minutes at 4° C. A 40 μL aliquot of the HDL-containing supernatant is transferred to a Packard Optiplate with 200 μL of MicroScint 20. After mixing, plates are counted by liquid scintillation. Counts present in the supernatant for blanks (wells containing only HDL acceptor, CETP buffer and DMSO) are subtracted from those containing test compounds and used to correct for non-specific transfer.
Comparison of the counts of samples with inhibitors to an uninhibited (DMSO only) positive control yield a percent inhibition. A plot of percent inhibition vs. log of inhibitor concentration, fit to a Sigmoidal 4 parameter equation is used to calculate IC50.

Usually IC50 stands for the concentration that inhibits the measured activity by half.

Turning to `COC(=O)c1cc(-c2ccc(OC)c(-c3ccc(N4CCC4)nc3CN3C(=O)O[C@H](c4cc(C(F)(F)F)cc(C(F)(F)F)c4)[C@@H]3C)c2)cs1` [Example 49], the IC50 was determined as 98 nM. `COC(=O)c1scc(-c2ccc(OC)c(-c3cc(Br)c(N4CCC4)nc3CN3C(=O)O[C@H](c4cc(C(F)(F)F)cc(C(F)(F)F)c4)[C@@H]3C)c2)c1C` [Example 50]: the IC50 is 15 nM. For `COC(=O)c1cc(-c2ccc(OC)c(-c3ccc(N4CCC4)nc3CN3C(=O)O[C@H](c4cc(C(F)(F)F)cc(C(F)(F)F)c4)[C@@H]3C)c2)c(C)s1` [Example 51] the value was 12 nM. For `COC(=O)c1sc(-c2ccc(OC)c(-c3ccc(N4CCC4)nc3CN3C(=O)O[C@H](c4cc(C(F)(F)F)cc(C(F)(F)F)c4)[C@@H]3C)c2)c(C)c1C` [Example 52] the value was 15 nM; for `COC(=O)c1coc(-c2ccc(OC)c(-c3ccc(N4CCC4)nc3CN3C(=O)O[C@H](c4cc(C(F)(F)F)cc(C(F)(F)F)c4)[C@@H]3C)c2)c1` [Example 53], 61 nM. The same measure for `CCOC(=O)c1csc(-c2ccc(OC)c(-c3ccc(N4CCC4)nc3CN3C(=O)O[C@H](c4cc(C(F)(F)F)cc(C(F)(F)F)c4)[C@@H]3C)c2)n1` [Example 54]: 189 nM; for `CCOC(=O)c1cc(C)c(-c2ccc(OC)c(-c3ccc(N4CCC4)nc3CN3C(=O)O[C@H](c4cc(C(F)(F)F)cc(C(F)(F)F)c4)[C@@H]3C)c2)n1C` [Example 56]: 5 nM; for `CCOC(=O)c1c(C)c(-c2ccc(OC)c(-c3ccc(N4CCC4)nc3CN3C(=O)O[C@H](c4cc(C(F)(F)F)cc(C(F)(F)F)c4)[C@@H]3C)c2)c(C)n1C` [Example 57]: 7 nM. Regarding `COC(=O)c1ccc(-c2ccc(OC)c(-c3ccc(N4CCC4)nc3CN3C(=O)O[C@H](c4cc(C(F)(F)F)cc(C(F)(F)F)c4)[C@@H]3C)c2)cn1` [Example 58], the IC50 came out at 29 nM.

Regarding `COC(=O)c1ccc(-c2ccc(OC)c(-c3ccc(N4CCC4)nc3CN3C(=O)O[C@H](c4cc(C(F)(F)F)cc(C(F)(F)F)c4)[C@@H]3C)c2)nc1` [Example 59], the half-inhibitory concentration (IC50) amounted to 195 nM. The same measure for `COc1ccc(CCC(=O)O)cc1-c1ccc(N2CCC2)nc1CN1C(=O)O[C@H](c2cc(C(F)(F)F)cc(C(F)(F)F)c2)[C@@H]1C` [Example 60, 3-{3-[6-Azetidin-1-yl-2-({(4S,5R)-5-[3,5-bis(trifluoromethyl)phenyl]-4-methyl-2-oxo-1,3-oxazolidin-3-yl}methyl)pyridin-3-yl]-4-methoxyphenyl}propanoic acid]: 11 nM; for `COc1ccc(CCC(=O)O)cc1-c1c(C)cc(N2CCC2)nc1CN1C(=O)O[C@H](c2cc(C(F)(F)F)cc(C(F)(F)F)c2)[C@@H]1C` [Example 61, 3-{3-[6-Azetidin-1-yl-2-({(4S,5R)-5-[3,5-bis(trifluoromethyl)phenyl]-4-methyl-2-oxo-1,3-oxazolidin-3-yl}methyl)-4-methylpyridin-3-yl]-4-methoxyphenyl}propanoic acid]: 5 nM; for `COc1ccc(CCC(=O)O)cc1-c1ccc(N2CCCC2)nc1CN1C(=O)O[C@H](c2cc(C(F)(F)F)cc(C(F)(F)F)c2)[C@@H]1C` [Example 62]: 49 nM. For `COc1ccc(CCC(=O)O)cc1-c1c(C)cc(N2CC(F)(F)C2)nc1CN1C(=O)O[C@H](c2cc(C(F)(F)F)cc(C(F)(F)F)c2)[C@@H]1C` [Example 63], the IC50 is 5 nM. For the compound `COc1ccc(CCC(=O)O)cc1-c1ccc(N2CC(F)(F)C2)nc1CN1C(=O)O[C@H](c2cc(C(F)(F)F)cc(C(F)(F)F)c2)[C@@H]1C` [Example 64], the IC50 is 13 nM. The same measure for `COc1cc(F)c(CCC(=O)O)cc1-c1ccc(N2CC(F)(F)C2)nc1CN1C(=O)O[C@H](c2cc(C(F)(F)F)cc(C(F)(F)F)c2)[C@@H]1C` [Example 65]: 24 nM; for `COc1ccc([C@@H]2C[C@H]2C(=O)O)cc1-c1ccc(N2CC(F)(F)C2)nc1CN1C(=O)O[C@H](c2cc(C(F)(F)F)cc(C(F)(F)F)c2)[C@@H]1C` [Example 66]: 8 nM; for `COc1ccc([C@H]2C[C@@H]2C(=O)O)cc1-c1ccc(N2CC(F)(F)C2)nc1CN1C(=O)O[C@H](c2cc(C(F)(F)F)cc(C(F)(F)F)c2)[C@@H]1C` [Example 67]: 14 nM.

`COc1ccc([C@@H]2C[C@H]2C(=O)O)cc1-c1c(C)cc(N2CCC2)nc1CN1C(=O)O[C@H](c2cc(C(F)(F)F)cc(C(F)(F)F)c2)[C@@H]1C` [Example 68]: the IC50 was 4 nM.

Consider `COc1cc(F)c(CCC(=O)O)cc1-c1c(C)cc(N2CCC2)nc1CN1C(=O)O[C@H](c2cc(C(F)(F)F)cc(C(F)(F)F)c2)[C@@H]1C` [Example 69], for which the IC50 is 5 nM. The same measure for `COc1ccc(CCC(=O)O)cc1-c1c(CN2C(=O)O[C@H](c3cc(C(F)(F)F)cc(C(F)(F)F)c3)[C@@H]2C)nc(N2CCC2)c(Br)c1C` [Example 70]: 4 nM; for `COc1ccc([C@H]2C[C@@H]2C(=O)O)cc1-c1c(C)cc(N2CCC2)nc1CN1C(=O)O[C@H](c2cc(C(F)(F)F)cc(C(F)(F)F)c2)[C@@H]1C` [Example 71]: 5 nM; for `COc1ccc([C@@H]2C[C@H]2C(=O)O)cc1-c1ccc(N2CCC2)nc1CN1C(=O)O[C@H](c2cc(C(F)(F)F)cc(C(F)(F)F)c2)[C@@H]1C` [Example 72]: 7 nM. The same measure for `COc1ccc([C@H]2CC[C@H](C(=O)O)CC2)cc1-c1ccc(N2CCC2)nc1CN1C(=O)O[C@H](c2cc(C(F)(F)F)cc(C(F)(F)F)c2)[C@@H]1C` [Example 73]: 8 nM. The same measure for `C[C@H]1[C@@H](c2cc(C(F)(F)F)cc(C(F)(F)F)c2)OC(=O)N1Cc1nc(N2CCC2)ccc1-c1cc(CCC(=O)O)ccc1Cl` [Example 74]: 9 nM; for `COc1ccc([C@H]2C[C@@H]2C(=O)O)cc1-c1ccc(N2CCC2)nc1CN1C(=O)O[C@H](c2cc(C(F)(F)F)cc(C(F)(F)F)c2)[C@@H]1C` [Example 75]: 9 nM. On to `COc1ccc(CC(=O)O)cc1-c1c(C)cc(N2CCC2)nc1CN1C(=O)O[C@H](c2cc(C(F)(F)F)cc(C(F)(F)F)c2)[C@@H]1C` [Example 76], for which the IC50 amounted to 14 nM. For `COc1ccc(C(C)(C)CC(=O)O)cc1-c1ccc(N2CCC2)nc1CN1C(=O)O[C@H](c2cc(C(F)(F)F)cc(C(F)(F)F)c2)[C@@H]1C` [Example 77] the value was 15 nM; for `COc1cc2c(cc1-c1ccc(N3CCC3)nc1CN1C(=O)O[C@H](c3cc(C(F)(F)F)cc(C(F)(F)F)c3)[C@@H]1C)C(CC(=O)O)CC2` (stereo partly drawn) [Example 78], 18 nM. The same measure for `COc1cc(F)c(CCC(=O)O)cc1-c1ccc(N2CCC2)nc1CN1C(=O)O[C@H](c2cc(C(F)(F)F)cc(C(F)(F)F)c2)[C@@H]1C` [Example 79]: 18 nM; for `COc1ccc(CC(=O)O)cc1-c1ccc(N2CCC2)nc1CN1C(=O)O[C@H](c2cc(C(F)(F)F)cc(C(F)(F)F)c2)[C@@H]1C` [Example 80]: 36 nM. Take `COc1ccc([C@H]2CC[C@H](C(=O)O)CC2)cc1-c1ccc(N2CCC2)nc1CN1C(=O)O[C@H](c2ccc(F)c(F)c2)[C@@H]1C` [Example 81]: the half-maximal inhibitory concentration (IC50) turned out to be 161 nM.

As to `COc1ccc(CCC(=O)O)cc1-c1ccc(N2CCC2)nc1CN1C(=O)O[C@H](c2cc(F)cc(F)c2)[C@@H]1C` [Example 82], the IC50 was 484 nM. Regarding `COc1ccc([C@@H]2C[C@H]2C(=O)O)cc1-c1ccc(N2CCC2)nc1CN1C(=O)O[C@H](c2cc(F)cc(F)c2)[C@@H]1C` [Example 83], the IC50 is 134 nM. As for `COc1ccc([C@H]2C[C@@H]2C(=O)O)cc1-c1ccc(N2CCC2)nc1CN1C(=O)O[C@H](c2cc(F)cc(F)c2)[C@@H]1C` [Example 84], the concentration for half-maximal inhibition (IC50) was determined as 73 nM. For the compound `COc1ccc([C@H]2CC[C@H](C(=O)O)CC2)cc1-c1ccc(N2CCC2)nc1CN1C(=O)O[C@H](c2cc(F)cc(F)c2)[C@@H]1C` [Example 85], the IC50 was 84 nM. Consider `COc1cc2c(cc1-c1ccc(N3CCC3)nc1CN1C(=O)O[C@H](c3cc(F)cc(F)c3)[C@@H]1C)[C@H](CC(=O)O)CC2` [Example 86], for which the IC50 came to 415 nM. Turning to `COc1cc(F)c(-c2ccc(C(=O)O)cc2C)cc1-c1ccc(N2CCC2)nc1CN1C(=O)O[C@H](c2cc(F)cc(F)c2)[C@@H]1C` [Example 87], the IC50 was 7 nM.

For the compound `CCc1ccc([C@@H]2C[C@H]2C(=O)O)cc1-c1ccc(N2CCC2)nc1CN1C(=O)O[C@H](c2cc(C(F)(F)F)cc(C(F)(F)F)c2)[C@@H]1C` [Example 88], the IC50 came to 9 nM.
